In ChEMBL document CHEMBL1150791, “blaVIM-2-harboring integrons isolated in India, Russia, and the United States arise from an ancestral class 1 integron predating the formation of the 3' conserved sequence” (2007) one finds Activity data, which are given here for 9 molecules.

Bounds are passed on as bounds.

The subject of this test is Pseudomonas aeruginosa. Kind of test: Antibacterial activity against blaVIM2-harboring integrons containing Pseudomonas aeruginosa 42 isolate from ventilator-associated pneumonia patient. The format is functional.
`NCC[C@H](O)C(=O)N[C@@H]1C[C@H](N)[C@@H](O[C@H]2O[C@H](CN)[C@@H](O)[C@H](O)[C@H]2O)[C@H](O)[C@H]1O[C@H]1O[C@H](CO)[C@@H](O)[C@H](N)[C@H]1O` [AMIKACIN] had an Activity of 8 µg/mL.

Molecule `C[C@H]1[C@H](NC(=O)/C(=N\OC(C)(C)C(=O)O)c2csc(N)n2)C(=O)N1S(=O)(=O)O` [AZTREONAM] returned an Activity of more than 256 µg/mL. As for `CO/N=C(\C(=O)N[C@@H]1C(=O)N2C(C(=O)[O-])=C(C[N+]3(C)CCCC3)CS[C@H]12)c1csc(N)n1` [CEFEPIME], the Activity was more than 256 µg/mL. The same measure for `CC(C)(O/N=C(\C(=O)N[C@@H]1C(=O)N2C(C(=O)[O-])=C(C[n+]3ccccc3)CS[C@H]12)c1csc(N)n1)C(=O)O` [CEFTAZIDIME]: 96 µg/mL; for `O=C(O)c1cn(C2CC2)c2cc(N3CCNCC3)c(F)cc2c1=O` [CIPROFLOXACIN]: more than 32 µg/mL. With `C[C@@H](O)[C@H]1C(=O)N2C(C(=O)O)=C(SCCNC=N)C[C@H]12` [IMIPENEM ANHYDROUS], the Activity was more than 32 µg/mL.

Consider `C[C@@H](O)[C@H]1C(=O)N2C(C(=O)O)=C(S[C@@H]3CN[C@H](C(=O)N(C)C)C3)[C@H](C)[C@H]12` [MEROPENEM], for which the Activity is more than 32 µg/mL.

With `CCN1CCN(C(=O)N[C@@H](C(=O)N[C@@H]2C(=O)N3[C@@H]2SC(C)(C)[C@@H]3C(=O)O)c2ccccc2)C(=O)C1=O` [PIPERACILLIN], the Activity is more than 256 µg/mL.

In turn, COLISTIN gave an Activity of 1 µg/mL.
